Test results: PubChem BioAssay (NCI)
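Where inhibition never reached the appropriate level, the endpoint shown equals the highest concentration tested. Otherwise, values were interpolated linearly from a five-concentration, 48-hour dose response in 96-well plates. The concentration for 50% growth inhibition is given as GI50. TGI: total growth inhibition.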

Columns and labels:
Assay in all cases: NCI-60 cell line screen, 48 h
786-0 renal = test system: 786-0 renal
A498 renal = test system: A498 renal
A549 NSCLC = test system: A549 NSCLC
ACHN renal = test system: ACHN renal
BT-549 breast = test system: BT-549 breast
CAKI-1 renal = test system: CAKI-1 renal
CCRF-CEM leukemia = test system: CCRF-CEM leukemia
COLO 205 colon = test system: COLO 205 colon
DU-145 prostate = test system: DU-145 prostate
EKVX NSCLC = test system: EKVX NSCLC
HCC-2998 colon = test system: HCC-2998 colon
HCT-116 colon = test system: HCT-116 colon
HCT-15 colon = test system: HCT-15 colon
HL-60(TB) leukemia = test system: HL-60(TB) leukemia
HOP-62 NSCLC = test system: HOP-62 NSCLC
HOP-92 NSCLC = test system: HOP-92 NSCLC
HS 578T breast = test system: HS 578T breast
HT29 colon = test system: HT29 colon
IGROV1 ovarian = test system: IGROV1 ovarian
K-562 leukemia = test system: K-562 leukemia
KM12 colon = test system: KM12 colon
LOX IMVI melanoma = test system: LOX IMVI melanoma
M14 melanoma = test system: M14 melanoma
MALME-3M melanoma = test system: MALME-3M melanoma
MCF7 breast = test system: MCF7 breast
MDA-MB-231 breast = test system: MDA-MB-231 breast
MDA-MB-435 = test system: MDA-MB-435
MOLT-4 leukemia = test system: MOLT-4 leukemia
NCI-H226 lung = test system: NCI-H226 lung
NCI-H23 lung = test system: NCI-H23 lung
NCI-H460 lung = test system: NCI-H460 lung
NCI-H522 lung = test system: NCI-H522 lung
NCI/ADR-RES ovarian = test system: NCI/ADR-RES ovarian
OVCAR-3 ovarian = test system: OVCAR-3 ovarian
OVCAR-4 ovarian = test system: OVCAR-4 ovarian
OVCAR-5 ovarian = test system: OVCAR-5 ovarian
OVCAR-8 ovarian = test system: OVCAR-8 ovarian
PC-3 prostate = test system: PC-3 prostate
RPMI-8226 leukemia = test system: RPMI-8226 leukemia
RXF 393 renal = test system: RXF 393 renal
SF-268 CNS = test system: SF-268 CNS
SF-295 CNS = test system: SF-295 CNS
SF-539 CNS = test system: SF-539 CNS
SK-MEL-2 melanoma = test system: SK-MEL-2 melanoma
SK-MEL-28 melanoma = test system: SK-MEL-28 melanoma
SK-MEL-5 melanoma = test system: SK-MEL-5 melanoma
SK-OV-3 ovarian = test system: SK-OV-3 ovarian
SN12C renal = test system: SN12C renal
SNB-19 CNS = test system: SNB-19 CNS
SNB-75 CNS = test system: SNB-75 CNS
SR leukemia = test system: SR leukemia
SW-620 colon = test system: SW-620 colon
T-47D breast = test system: T-47D breast
TK-10 renal = test system: TK-10 renal
U251 CNS = test system: U251 CNS
UACC-257 melanoma = test system: UACC-257 melanoma
UACC-62 melanoma = test system: UACC-62 melanoma
UO-31 renal = test system: UO-31 renal

`Cc1nc2cnc(N)c(C#Cc3cncc(C(=O)Nc4ccc(CN5CCN(C)CC5)c(C(F)(F)F)c4)c3)c2nc1C` gave a GI50 (786-0 renal) of 2580 nM, a TGI (786-0 renal) of 14.8 µM and a GI50 (A498 renal) of 180 nM. For the same compound, the TGI (A498 renal) was 1170 nM, the GI50 (A549 NSCLC) was 614 nM and the TGI (A549 NSCLC) was 5.71 µM. The GI50 (ACHN renal) was 564 nM, the TGI (ACHN renal) was 5.9 µM and the GI50 (BT-549 breast) was 2000 nM. For the same compound, the TGI (BT-549 breast) was 11.8 µM, the GI50 (CAKI-1 renal) was 310 nM and the TGI (CAKI-1 renal) was 1540 nM. The GI50 (CCRF-CEM leukemia) was 2120 nM, the TGI (CCRF-CEM leukemia) was 16.7 µM and the GI50 (COLO 205 colon) was 55.8 nM. The TGI (COLO 205 colon) was 634 nM, the GI50 (DU-145 prostate) was 409 nM and the TGI (DU-145 prostate) was 11.2 µM. It also gave a GI50 (EKVX NSCLC) of 739 nM, a TGI (EKVX NSCLC) of 12.6 µM and a GI50 (HCC-2998 colon) of 651 nM. The TGI (HCC-2998 colon) was 13.1 µM, the GI50 (HCT-116 colon) was 219 nM and the TGI (HCT-116 colon) was 1570 nM. For the same compound, the GI50 (HCT-15 colon) was 912 nM, the TGI (HCT-15 colon) was 10.9 µM and the GI50 (HL-60(TB) leukemia) was 138 nM. The TGI (HL-60(TB) leukemia) was 3.8 µM, the GI50 (HOP-62 NSCLC) was 738 nM and the TGI (HOP-62 NSCLC) was 10.2 µM. The GI50 (HOP-92 NSCLC) was 64.6 nM, the TGI (HOP-92 NSCLC) was 566 nM and the GI50 (HS 578T breast) was 541 nM. It also gave a TGI (HS 578T breast) of 5.66 µM, a GI50 (HT29 colon) of 45.6 nM and a TGI (HT29 colon) of 2720 nM. It also gave a GI50 (IGROV1 ovarian) of 266 nM, a TGI (IGROV1 ovarian) of 1210 nM and a TGI (K-562 leukemia) of 8.18 µM. For the same compound, the TGI (KM12 colon) was 1440 nM, the GI50 (LOX IMVI melanoma) was 101 nM and the TGI (LOX IMVI melanoma) was 1050 nM. It also gave a GI50 (M14 melanoma) of 90.3 nM, a TGI (M14 melanoma) of 339 nM and a GI50 (MALME-3M melanoma) of 33.9 nM. The TGI (MALME-3M melanoma) was 163 nM, the GI50 (MCF7 breast) was 161 nM and the TGI (MCF7 breast) was 4.04 µM. For the same compound, the GI50 (MDA-MB-231 breast) was 209 nM, the TGI (MDA-MB-231 breast) was 2130 nM and the GI50 (MDA-MB-435) was 140 nM. The TGI (MDA-MB-435) was 6 µM, the GI50 (MOLT-4 leukemia) was 859 nM and the TGI (MOLT-4 leukemia) was 18.3 µM. For the same compound, the GI50 (NCI-H226 lung) was 188 nM, the TGI (NCI-H226 lung) was 2610 nM and the GI50 (NCI-H23 lung) was 342 nM. The TGI (NCI-H23 lung) was 8.67 µM, the GI50 (NCI-H460 lung) was 478 nM and the TGI (NCI-H460 lung) was 11.7 µM. The GI50 (NCI-H522 lung) was 276 nM, the TGI (NCI-H522 lung) was 3.86 µM and the GI50 (NCI/ADR-RES ovarian) was 7.56 µM. It also gave a TGI (NCI/ADR-RES ovarian) of 23.8 µM, a GI50 (OVCAR-3 ovarian) of 824 nM and a TGI (OVCAR-3 ovarian) of 9.66 µM. It also gave a GI50 (OVCAR-4 ovarian) of 119 nM, a TGI (OVCAR-4 ovarian) of 6.17 µM and a GI50 (OVCAR-5 ovarian) of 304 nM. For the same compound, the TGI (OVCAR-5 ovarian) was 11 µM, the GI50 (OVCAR-8 ovarian) was 1430 nM and the TGI (OVCAR-8 ovarian) was 13.8 µM. It also gave a GI50 (PC-3 prostate) of 1480 nM, a TGI (PC-3 prostate) of 17.4 µM and a GI50 (RPMI-8226 leukemia) of 1650 nM. The TGI (RPMI-8226 leukemia) was 8.51 µM, the GI50 (RXF 393 renal) was 515 nM and the TGI (RXF 393 renal) was 1930 nM. It also gave a GI50 (SF-268 CNS) of 640 nM, a TGI (SF-268 CNS) of 10.3 µM and a GI50 (SF-295 CNS) of 3.02 µM. For the same compound, the TGI (SF-295 CNS) was 19.6 µM, the GI50 (SF-539 CNS) was 313 nM and the TGI (SF-539 CNS) was 3.69 µM. The GI50 (SK-MEL-2 melanoma) was 187 nM, the TGI (SK-MEL-2 melanoma) was 817 nM and the GI50 (SK-MEL-28 melanoma) was 166 nM. The TGI (SK-MEL-28 melanoma) was 1320 nM, the GI50 (SK-MEL-5 melanoma) was 748 nM and the TGI (SK-MEL-5 melanoma) was 6.07 µM. It also gave a GI50 (SK-OV-3 ovarian) of 1630 nM, a TGI (SK-OV-3 ovarian) of 9.15 µM and a GI50 (SN12C renal) of 381 nM. For the same compound, the TGI (SN12C renal) was 11.8 µM, the GI50 (SNB-19 CNS) was 4.36 µM and the TGI (SNB-19 CNS) was 16.9 µM. It also gave a GI50 (SNB-75 CNS) of 1350 nM, a TGI (SNB-75 CNS) of 3.39 µM and a GI50 (SR leukemia) of 1670 nM. It also gave a TGI (SR leukemia) of 10.9 µM, a GI50 (SW-620 colon) of 279 nM and a TGI (SW-620 colon) of 3.21 µM. It also gave a GI50 (T-47D breast) of 3.35 µM, a TGI (T-47D breast) of 26 µM and a GI50 (TK-10 renal) of 496 nM. It also gave a TGI (TK-10 renal) of 3.2 µM, a GI50 (U251 CNS) of 2520 nM and a TGI (U251 CNS) of 19.5 µM. The GI50 (UACC-257 melanoma) was 189 nM, the TGI (UACC-257 melanoma) was 1740 nM and the GI50 (UACC-62 melanoma) was 116 nM. For the same compound, the TGI (UACC-62 melanoma) was 1070 nM, the GI50 (UO-31 renal) was 1280 nM and the TGI (UO-31 renal) was 5.67 µM.
